From ChEMBL document CHEMBL1201862, “PubChem BioAssay data set” (2004)
Active and inactive are the calls of the source.

Assays:
[1] = microbe, parasite or virus in culture; type: functional; conditions: Mycobacterium tuberculosis
[2] = Luminescence Cell-Based Dose Retest to Confirm Inhibitors of Cancer Stem Cells. [Related pubchem assays (depositor defined):AID2717, AID2721]; type: functional; conditions: Homo sapiens
[3] = cytotoxicity in HEK-293T cells, dose response, cytotoxicity control for BCR NF-kB inhibitor project, luminescence, B-cell screen hits (AID 489021); type: functional, cell-based;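 note: HEK-293T cells carrying an NF-kB luciferase reporter; cells exposed to compound for about 14 hours before viability readout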
[4] = target: T1, Carboxy-terminal domain RNA polymerase II polypeptide A small phosphatase 1 (Homo sapiens, UniProt Q9GZU7); assay: inhibitors of CTDSP1, concentration-response testing, biochemical assay, absorbance-based, actives from ultra-high-throughput screening (AID 540297); type: functional
T1 sequence (Q9GZU7 whole entry): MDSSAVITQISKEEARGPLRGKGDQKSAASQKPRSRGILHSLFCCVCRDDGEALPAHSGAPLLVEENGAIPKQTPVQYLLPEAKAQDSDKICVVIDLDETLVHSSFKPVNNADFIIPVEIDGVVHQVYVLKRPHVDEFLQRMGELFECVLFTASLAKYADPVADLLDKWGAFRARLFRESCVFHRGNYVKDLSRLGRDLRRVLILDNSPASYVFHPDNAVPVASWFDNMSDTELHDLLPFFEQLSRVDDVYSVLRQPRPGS

Genome polyprotein = Genome polyprotein (dengue virus type 2, UniProt P29990); assay: Dengue-2 NS5 methyltransferase inhibitors, primary screen, biochemical, confirmation dose response (AID 588689); type: functional
[5] = target: T2, Ubiquitin-conjugating enzyme E2 N (Homo sapiens, UniProt P61088); type: functional;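 note: Dose-response confirmation in a TR-FRET assay detecting UBC13-driven polyubiquitin chain formation, inhibition measured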
T2 sequence (P61088 whole entry): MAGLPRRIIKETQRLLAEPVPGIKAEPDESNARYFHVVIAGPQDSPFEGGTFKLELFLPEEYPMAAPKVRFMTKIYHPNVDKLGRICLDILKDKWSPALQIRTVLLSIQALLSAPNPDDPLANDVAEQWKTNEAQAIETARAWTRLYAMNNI

[6] = target: Glucose-6-phosphate 1-dehydrogenase (Homo sapiens, UniProt P11413); assay: human G6PD enzyme inhibitors, dose response, selectivity assay for P. falciparum G6PD inhibitor project, biochemical, fluorescence (AID 504792); type: functional
[7] = HepG2 cell cytotoxicity, dose response, cytotoxicity control for Shn3 inhibitor project, CellTiter-Glo, cherry-picked (AID 624134); type: functional, cell-based
[8] = control 3'UTR Renilla luciferase suppression, dose response, counter-screen for Shn3 inhibitor project, cell-based, Clone20-Shn3RL, cherry-picked (AID 624133); type: functional
[9] = inhibitors of HIV Env-driven cell fusion, dose response, cherry-pick (AID 652057); type: functional, cell-based
[10] = inhibitors of clade B AD8 Env fusion, dose response, cell-based, cherry-pick (AID 652062); type: functional;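 note: luciferase signal from cell-cell fusion driven by HIV-1 clade B AD8 Env; potency is for inhibitors of fusion seen as a drop in luminescence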
[11] = growth suppression of PTEN-null colon cells, dose response, cell-based, HCT116 PTEN knockout (AID 1047); type: functional;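 note: HCT116 colon tumor cells with PTEN knocked out; cells exposed to compound for 60 hours before readout; potency for loss of cell viability measured by luminescence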
[12] = growth suppression of beta-catenin-knockout colon cells, dose response, cell-based, HCT116, human colon tumor (AID 1045); type: functional;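 note: HCT116 colon tumor cells with beta catenin knocked out; cells exposed to compound for 60 hours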
[13] = Shn3 3'UTR reporter inhibitors, dose response, cell-based, Clone20 osteoblasts, firefly luciferase, cherry-picked (AID 624132); type: functional;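 note: firefly luciferase luminescence from reporter carrying the Shn3 3'UTR in osteoblasts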
[14] = target: T3, Calpain-2 catalytic subunit (Sus scrofa, UniProt P43367); assay: pig calpain II inhibitor potency, dose response, biochemical, fluorogenic peptide substrate (AID 1420); type: functional
T3 sequence (P43367 whole entry): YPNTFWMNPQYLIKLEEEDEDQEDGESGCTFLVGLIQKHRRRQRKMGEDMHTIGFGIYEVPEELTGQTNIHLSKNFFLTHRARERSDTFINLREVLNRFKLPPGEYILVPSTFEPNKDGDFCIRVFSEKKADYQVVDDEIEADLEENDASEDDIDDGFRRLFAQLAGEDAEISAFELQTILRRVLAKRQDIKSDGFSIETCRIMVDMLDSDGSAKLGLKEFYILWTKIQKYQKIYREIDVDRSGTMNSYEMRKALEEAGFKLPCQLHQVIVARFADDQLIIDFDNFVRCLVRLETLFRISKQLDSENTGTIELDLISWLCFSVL

[15] = target: Induced myeloid leukemia cell differentiation protein Mcl-1 (Homo sapiens, UniProt Q07820); type: functional
[16] = Luminescence Cell-Based Dose Confirmation HTS to Identify Activators of 5'UTR Stem-Loop Driven Alpha-Synuclein mRNA Translation in H4 Neuroglioblastoma Cells. [Related pubchem assays: 1829 (Project Summary), 1814 (Primary HTS)]; type: functional
[17] = Luminescence Cell-Based Dose Response HTS to Identify Activators of Luciferase Translation or Activity in H4 […] Cells. [Related pubchem assays: 1829 (Project Summary), 1814 (Primary HTS)]; type: functional
H4 = assay: Luminescence Cell-Based Dose Response HTS to Identify Activators of 5'UTR Stem-Loop Driven Prion Protein mRNA Translation in H4 Neuroglioblastoma Cells. [Related pubchem assays: 1829 (Project Summary), 1814 (Primary HTS)]; type: functional; conditions: Homo sapiens
[18] = test system: Streptococcus sp. 'group A'; assay: growth inhibition of control SK(-) GAS strain, dose response, counter-screen for streptokinase expression inhibitor project, luminescence, kanamycin, BacTiterGlo, confirmation (AID 1900); type: functional, organism-based
Streptokinase A = target: T4, Streptokinase A (Streptococcus pyogenes serotype M1, UniProt P10520); assay: S. pyogenes streptokinase expression inhibitors, potency, dose response, plasminogen activation absorbance, OD405 (AID 1914); type: functional, Streptococcus pyogenes M1 GAS;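 note: secreted streptokinase activity via plasminogen activation per viability signal from cell pellet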
T4 sequence (P10520 whole entry): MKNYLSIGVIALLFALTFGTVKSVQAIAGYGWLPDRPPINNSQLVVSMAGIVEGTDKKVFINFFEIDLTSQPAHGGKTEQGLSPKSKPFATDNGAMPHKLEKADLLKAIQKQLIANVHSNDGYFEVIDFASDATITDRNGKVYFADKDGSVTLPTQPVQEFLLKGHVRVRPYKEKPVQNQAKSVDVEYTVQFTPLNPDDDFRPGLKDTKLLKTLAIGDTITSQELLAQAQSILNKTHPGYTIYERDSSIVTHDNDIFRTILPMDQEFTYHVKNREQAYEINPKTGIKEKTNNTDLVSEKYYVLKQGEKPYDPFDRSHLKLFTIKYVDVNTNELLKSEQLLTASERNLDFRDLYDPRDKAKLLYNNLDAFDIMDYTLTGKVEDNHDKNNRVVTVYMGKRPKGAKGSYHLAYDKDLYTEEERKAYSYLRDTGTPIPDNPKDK

Streptococcus = assay: Group A Streptococcus viability loss, dose response, counter-screen for streptokinase expression inhibitor project, luminescence, BacTiterGlo (AID 1915); type: functional, organism-based;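 note: potency for reduction of bacterial viability or growth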
[19] = target: T5, Heat shock factor protein 1 (Mus musculus, UniProt P38532); assay: HSF1 potentiators in luciferase reporter cells, confirmation, cell-based, NIH3T3, luminescence, dose retest (AID 435004); type: functional;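 note: stress induced by proteasome inhibitor MG132 added 30 min after compound; luciferase reporter driven by HSF1 response element in NIH3T3 cells; actives raise luminescence as potentiators of the MG132 stress response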
T5 sequence (P38532 whole entry): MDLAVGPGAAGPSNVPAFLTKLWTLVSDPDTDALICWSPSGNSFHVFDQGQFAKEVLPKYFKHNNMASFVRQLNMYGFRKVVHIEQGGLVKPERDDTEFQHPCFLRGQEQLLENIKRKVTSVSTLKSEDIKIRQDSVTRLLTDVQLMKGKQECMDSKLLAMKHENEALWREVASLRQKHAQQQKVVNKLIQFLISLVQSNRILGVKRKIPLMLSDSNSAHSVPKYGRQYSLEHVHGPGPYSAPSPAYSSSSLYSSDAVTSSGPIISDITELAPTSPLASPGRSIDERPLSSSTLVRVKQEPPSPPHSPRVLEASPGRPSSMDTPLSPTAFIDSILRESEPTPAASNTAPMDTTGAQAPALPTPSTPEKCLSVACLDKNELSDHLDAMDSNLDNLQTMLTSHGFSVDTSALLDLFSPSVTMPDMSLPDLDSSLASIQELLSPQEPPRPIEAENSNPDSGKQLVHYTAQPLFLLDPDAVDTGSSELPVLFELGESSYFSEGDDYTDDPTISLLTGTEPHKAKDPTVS

cells = type: functional
INS1 = assay: beta cell apoptosis inhibitors, cytokine rescue, dose response, luminescence, retest (AID 449756); type: functional, cell-based; conditions: Rattus norvegicus, INS1;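 note: cell death triggered by IL-1 beta plus TNF-alpha plus IFN-gamma mixture; protective hits raise ATP signal compared with cytokine alone wells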

Chain of Glucose-6-phosphate 1-dehydrogenase (P11413 whole entry): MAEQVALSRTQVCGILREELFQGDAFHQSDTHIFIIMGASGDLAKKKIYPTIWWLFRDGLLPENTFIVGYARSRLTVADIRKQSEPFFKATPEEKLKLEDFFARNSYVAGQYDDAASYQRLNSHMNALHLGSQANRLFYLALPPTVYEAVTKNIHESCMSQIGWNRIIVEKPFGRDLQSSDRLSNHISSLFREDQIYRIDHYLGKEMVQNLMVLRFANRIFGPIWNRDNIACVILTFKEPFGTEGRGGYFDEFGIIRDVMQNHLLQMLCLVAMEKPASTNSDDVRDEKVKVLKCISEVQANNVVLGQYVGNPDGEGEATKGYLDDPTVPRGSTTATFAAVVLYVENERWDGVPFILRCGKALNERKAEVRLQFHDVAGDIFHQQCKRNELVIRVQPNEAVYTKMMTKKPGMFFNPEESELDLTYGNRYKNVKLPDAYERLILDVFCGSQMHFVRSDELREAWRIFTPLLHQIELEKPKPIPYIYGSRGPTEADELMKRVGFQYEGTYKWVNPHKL
Chain of Induced myeloid leukemia cell differentiation protein Mcl-1 (Q07820 whole entry): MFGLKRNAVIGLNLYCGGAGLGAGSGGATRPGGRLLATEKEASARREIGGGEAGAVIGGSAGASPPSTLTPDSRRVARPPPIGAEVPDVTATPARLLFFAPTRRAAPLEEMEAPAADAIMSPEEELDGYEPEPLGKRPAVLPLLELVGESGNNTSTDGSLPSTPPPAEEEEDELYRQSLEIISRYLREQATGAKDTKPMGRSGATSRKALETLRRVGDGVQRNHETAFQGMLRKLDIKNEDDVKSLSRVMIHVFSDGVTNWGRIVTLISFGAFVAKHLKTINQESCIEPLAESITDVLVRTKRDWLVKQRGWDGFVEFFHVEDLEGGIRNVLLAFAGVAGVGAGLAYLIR
Chain of Genome polyprotein (P29990 2492-3391 limits assumed): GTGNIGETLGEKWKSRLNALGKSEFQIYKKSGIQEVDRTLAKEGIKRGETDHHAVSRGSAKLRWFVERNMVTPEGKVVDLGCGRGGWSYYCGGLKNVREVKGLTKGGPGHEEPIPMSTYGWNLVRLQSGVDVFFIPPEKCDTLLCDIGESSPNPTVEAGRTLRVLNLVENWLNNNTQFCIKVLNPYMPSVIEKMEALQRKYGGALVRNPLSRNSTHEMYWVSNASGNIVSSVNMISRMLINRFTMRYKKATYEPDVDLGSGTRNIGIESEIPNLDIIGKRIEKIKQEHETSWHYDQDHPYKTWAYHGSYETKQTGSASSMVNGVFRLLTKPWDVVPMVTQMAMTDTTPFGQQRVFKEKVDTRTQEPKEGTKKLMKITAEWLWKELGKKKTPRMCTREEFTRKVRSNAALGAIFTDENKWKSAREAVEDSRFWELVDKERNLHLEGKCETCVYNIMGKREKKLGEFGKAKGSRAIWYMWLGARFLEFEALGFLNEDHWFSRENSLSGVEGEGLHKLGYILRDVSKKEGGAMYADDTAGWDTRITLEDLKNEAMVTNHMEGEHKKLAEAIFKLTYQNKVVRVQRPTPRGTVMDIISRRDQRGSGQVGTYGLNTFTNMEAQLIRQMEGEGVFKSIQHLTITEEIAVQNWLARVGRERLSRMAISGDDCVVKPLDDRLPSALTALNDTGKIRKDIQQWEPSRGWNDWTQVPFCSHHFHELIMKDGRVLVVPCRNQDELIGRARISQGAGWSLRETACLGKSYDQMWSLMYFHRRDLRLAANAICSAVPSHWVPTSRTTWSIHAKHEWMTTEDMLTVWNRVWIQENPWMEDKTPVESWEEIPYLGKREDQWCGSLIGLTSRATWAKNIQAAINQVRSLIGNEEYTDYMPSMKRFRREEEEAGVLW

Cc1ccc(C)c(NC(=O)c2cc(-c3ccccc3)nn2-c2ccccc2)c1
CC50 [1]: > 40 µM (active) | AC50 [2]: 33.9 µM (active)

CN1C(=O)c2cccc3c(S(=O)(=O)Nc4ccccc4F)ccc1c23
IC50 [3]: > 80 µM (inactive)

CC(C)[C@H](N)c1nnc(SCC(=O)c2ccc(Cl)cc2)o1
IC50 [3]: > 80 µM (inactive)

CCOc1ccc(NC(=O)c2ccc(NC(=O)c3ccc(NC(N)=O)cc3)cc2)cc1
IC50 [4]: 3.89 µM (active)

CC1CC(=O)C(C(C2=C(O)CC(C)CC2=O)c2ccccc2)=C(O)C1 (stereo not drawn)
IC50 (Genome polyprotein): 66.2 µM (active)

Clc1ccc2c(c1)CNc1c(ncnc1N1CCOCC1)O2
IC50 [5]: > 20 µM (inactive)

CCN(CC)C(=O)c1ccc(S(=O)(=O)Cc2ccc(C)cc2)c([N+](=O)[O-])c1
IC50 [3]: > 80 µM (inactive)

C[C@H](NC(N)=O)C(=O)Nc1ccc(N2CCOCC2)c(S(=O)(=O)Nc2ccc(Cl)cc2)c1
IC50 [6]: > 80 µM (inactive)

C/C=C(/C)C(=O)OC1Cc2c(ccc3ccc(=O)oc23)OC1(C)C (stereo not drawn)
IC50 [3]: > 80 µM (inactive)

COc1ccc(-c2ccc(OC)c([C@H]3[C@H]4C=CC[C@@H](C)[C@@H]4C(=O)N3Cc3ccccc3)c2)cc1C
IC50 [3]: > 80 µM (inactive)

CC(Cl)=CCn1c(NCCc2ccccc2)nc2c1c(=O)n(C)c(=O)n2C
AC50 [7]: 58.8 µM (active) | AC50 [8]: 0.974 µM (active) | AC50 [9]: 33.4 µM (active) | AC50 [10]: 3.67 µM (active)

CCOC(=O)c1sc(NC(=O)CSc2nnc(Cc3ccccc3)o2)c(C#N)c1C
IC50 [6]: > 80 µM (inactive)

CCc1ccc(OCC(=O)NC(N=C(S)Nc2ccc(Cl)cc2)C(Cl)(Cl)Cl)cc1 (stereo not drawn)
EC50 [11]: 13.8 µM (active) | EC50 [12]: 13.6 µM (active) | AC50 [13]: 4.96 µM (active) | AC50 [7]: 18.1 µM (active) | AC50 [8]: 26.1 µM (active)

O=P(Nc1cccc(Cl)c1)(Oc1ccccc1)Oc1ccccc1
IC50 [14]: 8.58 µM (not active)

CCn1nc(C)c(/C=N/NC(=O)Cc2ccc(Cl)cc2)c1C
IC50 [15]: < 0.4 µM (not active)

Cc1ccc(-c2c(C(=O)N/N=C/c3ccsc3)nnn2-c2nonc2N)cc1
IC50 [6]: > 80 µM (inactive)

CCCn1c(O)nnc1SCc1nc2ccccc2s1
EC50 [16]: 3.71 µM (active) | EC50 [17]: 22.7 µM (active) | EC50 (H4): 37.1 µM (active) | IC50 [14]: 0.803 µM (not active)

CN(C)c1ccc(/C=c2\sc3nc(-c4ccccc4)nn3c2=O)cc1
IC50 [15]: 5.67 µM (active)

Cc1cc(NC(=O)CSc2nc3ccsc3c(=O)n2CCCC(=O)NCCc2ccccc2)no1
IC50 [14]: 14.1 µM (not active)

COc1cc(/C=C2\C(=N)N3N=C(N4CCOCC4)SC3=NC2=O)ccc1OC(=O)c1ccccc1
IC50 (Genome polyprotein): 80.1 µM (active)

O=C(COC(=O)c1c[nH]c(=O)[nH]c1=O)Nc1cccc([N+](=O)[O-])c1
IC50 [5]: > 20 µM (inactive)

Cc1c(Br)c([N+](=O)[O-])nn1CCCC(=O)Nc1c(C)n(C)n(-c2ccccc2)c1=O
IC50 [5]: > 20 µM (inactive)

CCn1nc(NC(=O)c2ccncc2)c2cc3cc(C)ccc3nc21
EC50 [18]: 1.88 µM (active) | EC50 (Streptokinase A): > 150 µM (not active) | CC50 [1]: > 40 µM (active) | EC50 (Streptococcus): 11.4 µM (active)

O=C(Nc1ccn(Cc2ccccc2F)n1)c1ccc(COc2ccccc2Cl)cc1
CC50 [1]: > 40 µM (active) | AC50 [2]: 1.02 µM (active)

O=C(NCc1ccco1)C1CCN(C(=O)c2cc3sccc3n2Cc2ccc(Cl)cc2)CC1
IC50 [14]: 10.9 µM (not active)

CN(c1ccccc1)S(=O)(=O)c1ccc(Cl)c(C(=O)OCC(=O)NCc2ccco2)c1
IC50 [4]: 8.74 µM (active)

Nc1nc(N)c2cc(Sc3cccc(C(F)(F)F)c3)ccc2n1 [WR-159412]
AC50 [13]: 4.87 µM (active) | AC50 [7]: 2.34 µM (active) | AC50 [8]: 19.7 µM (active)

CC1CN(Cc2csc(-c3ccc(Cl)cc3)n2)CC(C)O1 (stereo not drawn)
IC50 [14]: 13.2 µM (not active)

CCOC(=O)c1c(NC(=O)c2ccc(C)cc2)sc2c1CC(C)(C)NC2(C)C
IC50 [5]: > 20 µM (inactive)

O=C(CBr)c1ccc([N+](=O)[O-])c(CS(=O)(=O)c2ccc(Cl)cc2)c1
IC50 [6]: > 80 µM (inactive) | EC50 [19]: 31.9 µM (active)

CCOC(=O)C1CCCN(C(=O)CSc2ccc(NC(C)=O)cc2)C1 (stereo not drawn)
IC50 [14]: < 0.4 µM (not active)

C[C@H](C(=O)N(C)C[C@@H]1OCc2ccccc2-c2ccccc2C(=O)N([C@@H](C)CO)C[C@H]1C)c1ccccc1
AC50 [9]: 1.23 µM (active) | AC50 [10]: 8.04 µM (active)

CCCCn1c(CN2CCN(c3ccc(F)cc3)CC2)nc2c1c(=O)n(C)c(=O)n2C
AC50 [13]: 2.73 µM (active) | AC50 [7]: 5.36 µM (active) | AC50 [8]: 23 µM (active)

O=C(O/N=C/c1ccc2c(c1)OCO2)c1ccc([N+](=O)[O-])cc1
IC50 [14]: 16 µM (not active) | IC50 (cells): 8.31 µM (active)

COc1ccccc1NC(=O)N[C@@H]1C=C[C@H](CC(=O)NCc2ccc(Cl)c(Cl)c2)O[C@@H]1CO
AC50 [9]: 14.6 µM (active) | AC50 [10]: 43 µM (active)

O=C(C[C@@H]1CC[C@H]2[C@@H](COC[C@H](O)CN2Cc2cccc(C(F)(F)F)c2)O1)NCc1ccc(Cl)cc1
AC50 [9]: 4.85 µM (active) | AC50 [10]: 10.9 µM (active)

CCN(c1ccc(NC(=O)CCNC(=O)c2ccco2)cc1)C(C)C
IC50 [15]: 3.29 µM (not active)

O=C(Nc1cc(Sc2ccccn2)cc([N+](=O)[O-])c1)c1cccc(F)c1
IC50 [14]: 5.86 µM (not active) | AC50 (INS1): 5.55 µM (active)
